The text below walks through data of ChEMBL document CHEMBL1129603, “Synthesis and biological activity of metabolites of the antidiabetic, antihyperglycemic agent pioglitazone” (1996).

Each structure is given as a SMILES string.

For this assay, the species on record is Mus musculus. Put plainly: Compound was evaluated for Antihyperglycemic activity in KKAy mice, glucose level for the treated group (T) over the anti-hyperglycaemic activity. In kind it is functional.
`CC(=O)c1ccc(CCOc2ccc(CC3SC(=O)NC3=O)cc2)nc1` (stereo unspecified): the T/C came out at 0.74.
As for `CCc1ccc(C(O)COc2ccc(CC3SC(=O)NC3=O)cc2)nc1` (stereo unspecified), the figure is 0.78; as for `O=C(O)Cc1ccc(CCOc2ccc(CC3SC(=O)NC3=O)cc2)nc1` (stereo unspecified), 0.91.
As for `CC(O)c1ccc(CCOc2ccc(CC3SC(=O)NC3=O)cc2)nc1` (stereo unspecified) [LERIGLITAZONE], the figure is 0.74; as for `CCc1ccc(C(=O)COc2ccc(CC3SC(=O)NC3=O)cc2)nc1` (stereo unspecified) [MITOGLITAZONE], 0.39.
As for `CCc1ccc(CCOc2ccc(CC3SC(=O)NC3=O)cc2)nc1` (stereo unspecified) [PIOGLITAZONE], the figure is 0.49.
